The values below come from article PMC12217461 (Antimicrobial Agents and Chemotherapy, 2025).

Where only a bound is given, the exact number is not on record here.

Holding throughout (type): cell-based
In assay [1] the test system is Klebsiella pneumoniae ATCC BAA-2814. Description: microbe, parasite or virus in culture. The note with it: ATCCBAA2814, read-out: Minimal inhibitory concentration. As for the experimental part:
(§1) To assess the inhibitory potency of XER, susceptibility testing was performed by broth microdilution method, determining the minimal inhibitory concentrations (MICs) of different antibiotics or antibiotic plus β-lactamase inhibitor combinations, including cefepime (FEP), imipenem (IPM), meropenem (MEM), and their combinations with XER (FEP-XER, IPM-XER, and MEM-XER). All data obtained with XER-based combinations were compared with data with TAN-based combinations, FEP-TAN, IPM-TAN, and MEM-TAN ([16]). FEP was purchased from Sigma-Aldrich (Saint-Louis, USA), whereas MEM was from HuiChem (Shanghai, China). […] MICs were determined in triplicate in cation-adjusted Mueller-Hinton (MH) broth (Bio-Rad, Marnes-la-Coquette, France) according to the CLSI guidelines ([53]). The results were interpreted according to the decrease in MIC value for the same antibiotic or combination of the corresponding recombinant strain producing the MBL enzyme. […] In a recent phase I clinical evaluation, XER was combined with cefiderocol. However, as this latter β-lactam substrate is known to be poorly hydrolyzed by IMP enzymes, it was not considered for the evaluation of XER inhibitory activity in this study. Instead, carbapenems were used as a substrate to evaluate the β-lactamase IMP activity in the presence or absence of XER and TAN, as it was deemed more specific for the IMP carbapenemase activity.

Assay [2] concerns Escherichia coli ATCC 25922. Description: microbe, parasite or virus in culture. Particulars: ATCC25922, QC 3, no acquired β-lactamase, TAN/XER fixed at 4 µg/mL, XER 8 µg/mL in MEM-XER, read-out: Minimal inhibitory concentration. As for the experimental part:
as §1

For assay [3], the system named is Escherichia coli NCTC 13353. In words: microbe, parasite or virus in culture. The note with it: NCTC13353, read-out: Minimal inhibitory concentration. Here is the method:
as §1

A further assay has as its system P. aeruginosa ATCC 27853. Description: microbe, parasite or virus in culture. The note with it: Pseudomonas aeruginosa, ATCC27853; QC 4; no acquired β-lactamase; TAN/XER fixed at 4 µg/mL, XER 8 µg/mL in MEM-XER; read-out: Minimal inhibitory concentration. As for the experimental part: as §1
In assay [4] the test system is Enterobacter hormaechei (cluster III) SMART 271. In words: microbe, parasite or virus in culture. Particulars: read-out: Minimal inhibitory concentration. Here is the method:
Most isolates and their respective β-lactamase content were characterized by whole-genome sequencing.
as §1

For the next assay, the system named is E. coli IMP-7. Description: MIC broth microdilution, recombinant E. coli. Particulars: Escherichia coli, IMP7; IMP-7-like; TAN/XER fixed at 4 µg/mL, XER 8 µg/mL in MEM-XER; read-out: Minimal inhibitory concentration.
Excerpt: (§2) Genes encoding different acquired IMP-like enzymes suspected to be resistant to XER (blaIMP-6, blaIMP-7, blaIMP-10, blaIMP-14, blaIMP-26, blaIMP-34, and blaIMP-59) were amplified by PCR, and corresponding amplicons were cloned into plasmid pUCP24 and expressed in E. coli TOP10. The following recombinant E. coli strains producing IMP-1, IMP-4, IMP-19, and NDM-1 were used from a previous study ([16]). […] For that purpose, a list of primers was designed and provided as Table S1. […] The nomenclature used in this study was according to the BBL sequence numbering ([52]).
as §1
On the technique in general: Broth dilution looks for growth in wells or tubes with falling amounts of substance.

The next assay relates to E. coli IMP-6. In words: MIC broth microdilution, recombinant E. coli. Particulars: Escherichia coli, IMP6; IMP-1-like, S262G; TAN/XER fixed at 4 µg/mL, XER 8 µg/mL in MEM-XER; read-out: Minimal inhibitory concentration.
Excerpt: as §2, §1

Another assay concerns E. coli IMP-34. In words: MIC broth microdilution, recombinant E. coli. The note with it: Escherichia coli, IMP34; IMP-1-like, E126G; TAN/XER fixed at 4 µg/mL, XER 8 µg/mL in MEM-XER; read-out: Minimal inhibitory concentration.
Excerpt: as §2, §1

The test system of a further assay is E. coli NDM-1* (S262G). In words: MIC broth microdilution, recombinant E. coli. The note with it: Escherichia coli, TAN/XER fixed at 4 µg/mL, XER 8 µg/mL in MEM-XER, read-out: Minimal inhibitory concentration.
Excerpt: as §2, §1

Assay [5] relates to E. coli IMP-14 Mutant 3 (N178S). In words: MIC broth microdilution, recombinant E. coli. The note with it: Escherichia coli; IMP-14 N178S; TAN/XER fixed at 4 µg/mL, XER 8 µg/mL in MEM-XER; read-out: Minimal inhibitory concentration.
Excerpt: as §2, §1

The next assay has as its system E. coli IMP-14. In words: MIC broth microdilution, recombinant E. coli. The note with it: Escherichia coli, IMP14; IMP-2-like, multiple substitutions; TAN/XER fixed at 4 µg/mL, XER 8 µg/mL in MEM-XER; read-out: Minimal inhibitory concentration.
Excerpt: as §2, §1

The subject of a further assay is E. coli IMP-1. Description: MIC broth microdilution, recombinant E. coli. Particulars: Escherichia coli, IMP1; IMP-1-like; TAN/XER fixed at 4 µg/mL, XER 8 µg/mL in MEM-XER; read-out: Minimal inhibitory concentration.
Excerpt: as §2, §1

A further assay concerns E. coli IMP-26. In words: MIC broth microdilution, recombinant E. coli. The note with it: Escherichia coli, IMP26; IMP-4 like, V67F; TAN/XER fixed at 4 µg/mL, XER 8 µg/mL in MEM-XER; read-out: Minimal inhibitory concentration.
Excerpt: as §2, §1

The test system of assay [6] is E. coli IMP-14 Mutant 1 (S65G). In words: MIC broth microdilution, recombinant E. coli. The note with it: Escherichia coli; IMP-14 S65G; TAN/XER fixed at 4 µg/mL, XER 8 µg/mL in MEM-XER; read-out: Minimal inhibitory concentration.
Excerpt: as §2, §1

Assay [7] has as its system E. coli IMP-14 Mutant 5 (Y233N). Description: MIC broth microdilution, recombinant E. coli. The note with it: Escherichia coli; IMP-14 Y233N; TAN/XER fixed at 4 µg/mL, XER 8 µg/mL in MEM-XER; read-out: Minimal inhibitory concentration.
Excerpt: as §2, §1

The next assay has as its system E. coli IMP-4. Description: MIC broth microdilution, recombinant E. coli. The note with it: Escherichia coli, IMP4; IMP-4 like; TAN/XER fixed at 4 µg/mL, XER 8 µg/mL in MEM-XER; read-out: Minimal inhibitory concentration.
Excerpt: as §2, §1

Take `C[C@@H](O)[C@H]1C(=O)N2C(C(=O)O)=C(SCCN=CN)C[C@H]12` [IPM, imipenem]: the MIC in assay [1] was 16 µg/mL; in [2], not above 0.25 µg/mL; in assay [3] it was not above 0.25 µg/mL; in the assay on P. aeruginosa ATCC 27853, 1 µg/mL; in [4] it was 0.5 µg/mL; with E. coli IMP-7, 0.25 µg/mL. Moreover, the MIC with E. coli IMP-6 was not above 0.25 µg/mL; in the assay on E. coli IMP-34, 0.5 µg/mL; in the assay with E. coli NDM-1* (S262G), 0.25 µg/mL; in assay [5], 2 µg/mL; in the assay with E. coli IMP-14, 1 µg/mL; with E. coli IMP-1, 4 µg/mL. The MIC in the assay on E. coli IMP-26 turned out to be 8 µg/mL; in [6] it was 8 µg/mL; in [7], 32 µg/mL; with E. coli IMP-4 it was 1 µg/mL.
In the case of `CO/N=C(\C(=O)N[C@@H]1C(=O)N2C(C(=O)[O-])=C(C[N+]3(C)CCCC3)CS[C@H]12)c1csc(N)n1` [FEP, cefepime], the MIC in assay [1] was more than 256 µg/mL; in assay [2], not above 0.25 µg/mL; in assay [3] it was 256 µg/mL; in the assay on P. aeruginosa ATCC 27853 it was 1 µg/mL; with E. coli IMP-6, 4 µg/mL; with E. coli NDM-1* (S262G) it was 1 µg/mL. In addition, the MIC is 128 µg/mL in assay [5]; 64 µg/mL in the assay with E. coli IMP-14; 32 µg/mL with E. coli IMP-1; 32 µg/mL in the assay with E. coli IMP-26; 128 µg/mL in assay [6]; 16 µg/mL in assay [7]. Besides, the MIC with E. coli IMP-4 turned out to be 8 µg/mL.
On to `C[C@@H](O)[C@H]1C(=O)N2C(C(=O)O)=C(S[C@@H]3CN[C@H](C(=O)N(C)C)C3)[C@H](C)[C@H]12` [MEM, meropenem], for which the MIC in [1] was 64 µg/mL; in assay [2] it was not above 0.25 µg/mL; in [3], not above 0.25 µg/mL; with P. aeruginosa ATCC 27853, 0.5 µg/mL; in [4] it was 0.5 µg/mL; with E. coli IMP-7 it was 2 µg/mL. In addition, the MIC was 64 µg/mL in the assay on E. coli IMP-6; 2 µg/mL with E. coli IMP-34; 32 µg/mL in the assay on E. coli NDM-1* (S262G); 8 µg/mL in assay [5]; 4 µg/mL in the assay on E. coli IMP-14; 8 µg/mL in the assay on E. coli IMP-1. Moreover, the MIC in the assay with E. coli IMP-26 amounted to 128 µg/mL; in [6] it was 8 µg/mL; in assay [7] it was 1 µg/mL; with E. coli IMP-4, 8 µg/mL.
